Source: EP4755878A1, “PHOTOCHROMIC COMPOUND, PHENOL DERIVATIVE, CURABLE COMPOSITION, OPTICAL ARTICLE, LENS, AND EYEGLASS” (TOKUYAMA CORPORATION, priority 2023, dated 2025)

Test: Photochromic properties of photochromic laminate (plastic lens) made by coating method
Type: physicochemical
Details: for Color developing density at 23°C: absorbance difference after 240 seconds irradiation at 23°C; for Color developing density at 35°C: absorbance difference after 240 seconds irradiation at 35°C; for Maximum absorption wavelength: after color development, second absorption wavelength (lower line of pair)
Excerpt: First, the photochromic compound obtained in Example 1 above, a photoinitiator, and polymerizable compounds were mixed to obtain a curable composition.
As the polymerizable compounds, a blend of the following radically-polymerizable monomers in combination was used.
• Polyethylene glycol dimethacrylate (average molecular weight: 736): 42 parts by mass • Polyethylene glycol dimethacrylate (average molecular weight: 536): 12 parts by mass • Trimethylolpropane trimethacrylate: 38 parts by mass • γ-Methacryloyloxypropyltrimethoxysilane: 2 parts by mass • Glycidyl methacrylate: 1 part by mass.
Note that in the curable composition, the photochromic compound obtained in Example 1 above was added to be 0.25 mmol taking the total amount of the radically-polymerizable monomers as 100 g. The following were used as additives.
(stabilizer, Irganox 245): 1 part by mass Bis(1,2,2,6,6-pentamethyl-4-piperidyl) sebacate: 3 parts by mass Leveling agent from DuPont Toray Specialty Materials K.K. (L7001): 0.1 parts by mass.
Note that the above-mentioned additives are described with blending ratios taking a total of the radically-polymerizable monomers as 100 parts by mass.
Using this curable composition, a photochromic laminate was obtained by a lamination process described below with the polymerization described below being carried out.
First, a thiourethane plastic lens with a center thickness of 2 mm and a refractive index of 1.60 was prepared as an optical substrate. Note that the thiourethane plastic lens had been alkaline-etched beforehand in a 10% aqueous sodium hydroxide solution at 50°C for 5 minutes, and then thoroughly washed with distilled water.
A spin coater (1H-DX2, manufactured by MIKASA CO., LTD) was used to coat a surface of the above-mentioned plastic lens with a moisture-curable primer (product name: TR-SC-P, manufactured by Tokuyama Corporation) at a rotation speed of 70 rpm for 15 seconds, followed by at 1000 rpm for 10 seconds. Then, about 2 g of the photochromic curable composition obtained as above was spin-coated at a rotation speed of 60 rpm for 40 seconds, followed by at 600 rpm for 10 to 20 seconds so as to achieve a photochromic coating layer with a film thickness of 40 µm.
The lens having the surface coated with the photochromic curable composition (photochromic coating layer) was irradiated with light for 90 seconds in a nitrogen gas atmosphere using a metal halide lamp with an output of 200 mW/cm^2 to cure the coating film. The coating was then further heated at 110°C for 1 hour to produce a photochromic laminate with a photochromic layer.
Photochromic laminates were produced using the photochromic compounds obtained in Examples 2 to 19 in the same manner as in Example 20.
Photochromic laminates were obtained in the same manner as in Example 20 using photochromic compounds represented by the following formulas (A) to (F). [drawing 143] [drawing 144] [drawing 145] [drawing 146] [drawing 147] [drawing 148] [drawing 149] [drawing 150]
The resulting photochromic laminates were evaluated by the methods described below.
Table 3 summarizes the results of Examples 20, 32, and 34, and Comparative Examples 1 to 6, and Table 4 summarizes the results of Examples 21 to 31, 33, and 35 to 38. The relationship between the fading half-life at 23°C and the color development ratio at the higher temperature of the photochromic laminates according to Examples and Comparative Examples are shown in a graph in FIG. 1.
Photochromic laminates were formed using the photochromic compound obtained in Examples 61 to 71 in the same manner as in Example 20.

SMILES | Color developing density at 23°C (first absorption wavelength) | Color developing density at 23°C (second absorption wavelength) | Color developing density at 35°C (first absorption wavelength) | Color developing density at 35°C (second absorption wavelength) | Maximum absorption wavelength [nm]
CCCCOc1ccc(C2(c3ccc(OC)cc3)C=Cc3c4c(c5cc(-c6ccc(C(F)(F)F)cc6)c(OC)cc5c3O2)-c2ccc(N(C)c3ccccc3)cc2C4(CCC)CCC)cc1 (centres unmarked) [Formula (63-2)] | 0.71 - | 0.80 - | 0.50 - | 0.57 - | 626
CCC1(CC)c2cc(N3CCOc4ccccc43)ccc2-c2c1c1c(c3cc(OC)ccc23)OC(c2ccc(OCCOC(=O)CCCCCCCCC(=O)OCCOc3ccc(C4(c5ccc(N6CCOCC6)cc5)C=Cc5c6c(c7ccc(OC)cc7c5O4)-c4ccc(N5CCOc7ccccc75)cc4C6(CC)CC)cc3)cc2)(c2ccc(N3CCOCC3)cc2)C=C1 (centres unmarked) [Formula (19-3)] | 0.55 - | 0.88 - | 0.34 - | 0.57 - | 629
CCCCCCC1(CCCCCC)c2cc(N(c3ccccc3)c3ccccc3)ccc2-c2c1c1c(c3cc(OC)c(-c4ccccc4N4CCOCC4)cc23)OC(c2ccc(OC)cc2)(c2ccc(OC)c(F)c2)C=C1 (centres unmarked) [Formula (70-4)] | 1.44 - | 1.24 - | 1.16 - | 1.01 - | 621
CCCOc1ccc(C2(c3ccc(OCCC)cc3)C=Cc3c4c(c5ccc(-c6ccc(OC)cc6OC)cc5c3O2)-c2ccc(N(C)c3ccc(F)cc3)cc2C4(CC)CC)cc1 [Formula (5-4)] | 0.72 - | 1.18 - | 0.53 - | 0.88 - | 596
COc1ccc2c3c(c4c(c2c1)OC(c1ccc(F)cc1)(c1ccc(N2CCOCC2)cc1)C=C4)C(CCC(F)(F)F)(CCC(F)(F)F)c1cc(N(C)c2ccc(C)cc2)ccc1-3 (centres unmarked) [Formula (14-3)] | 0.73 - | 1.13 - | 0.51 - | 0.80 - | 628
CCCCCC1(CCCCC)c2cc(N3CCOc4ccccc43)ccc2-c2c1c1c(c3cc(OC)c(-c4ccc(N5CCOc6ccccc65)cc4)cc23)OC(c2ccc(OC)cc2)(c2ccc(OC)cc2)C=C1 [Formula (66-5)] | 1.37 - | 1.03 - | 1.09 - | 0.82 - | 602
CCCCCCOc1ccc(C2(c3ccc(OCCCCCC)cc3)C=Cc3c4c(c5cc(N6CCC(C(F)(F)F)CC6)c(OC)cc5c3O2)-c2ccc(N(c3ccccc3)c3ccccc3)cc2C42CCC3(CCCCC3)CC2)cc1 [Formula (64-3)] | 1.94 - | 0.92 - | 1.38 - | 0.67 - | 611
COc1ccc(C2(c3ccc(OC)cc3)C=Cc3c4c(c5ccc(OC)cc5c3O2)-c2ccc(Oc3ccccc3)cc2C4(C)C)cc1 [Formula(E), reference compound] | 0.71 - | 0.96 - | 0.46 - | 0.63 - | 579
COc1ccc(C2(c3ccc(N4CCOCC4)cc3)C=Cc3c4c(c5cc(Sc6c(C)cccc6C)c(OC)cc5c3O2)-c2ccc(N3CCOc5cc(F)ccc53)cc2C42CC(C)(C)CC(C)(C)C2)cc1 (centres unmarked) [Formula (11-4)] | 0.51 - | 0.51 - | 0.31 - | 0.30 - | 620
CCCC1(CCC)c2cc(N3CCCc4ccccc43)ccc2-c2c1c1c(c3cc(OC)ccc23)OC(c2ccc(OC)cc2)(c2ccc(OCCCO)cc2)C=C1 (centres unmarked) [Formula (17-3)] | 0.85 - | 0.96 - | 0.61 - | 0.70 - | 613
CCCCOCCC1(CCOCCCC)c2cc(N(c3ccccc3)c3ccccc3)ccc2-c2c1c1c(c3cc(OC)c(N(C)c4ccc(C(F)(F)F)cc4)cc23)OC(c2ccc(OC)cc2)(c2ccc(OCCC)cc2)C=C1 (centres unmarked) [Formula (65-2)] | 0.85 - | 0.77 - | 0.57 - | 0.53 - | 623
COCCN(c1ccccc1)c1ccc2c(c1)C(CCOC)(CCOC)c1c3c(c4cc(C)c(N5CCOCC5)cc4c1-2)OC(c1ccc(OC)cc1)(c1ccc(OC)cc1)C=C3 [Formula (10-3)] | 1.24 - | 1.01 - | 0.83 - | 0.68 - | 594
CCCOc1ccc(C2(c3ccc(OCCC)cc3)C=Cc3c4c(c5cc(N(C)c6ccccc6)c(OC)cc5c3O2)-c2ccc(N(C)c3ccccc3)cc2C4(CCC)CCC)cc1 [Formula (61-4)] | 1.37 - | 0.88 - | 1.03 - | 0.64 - | 619
COCCCC1(CCCOC)c2cc(N(c3ccccc3)c3ccccc3)ccc2-c2c1c1c(c3cc(OC)c(N4CCOCC4)cc23)OC(c2ccc(C)cc2)(c2ccc(N(C)c3ccccc3)cc2)C=C1 (centres unmarked) [Formula (69-2)] | 1.76 - | 1.28 - | 1.32 - | 0.96 - | 640
CCC1(CC)c2cc(N(C)c3ccccc3)ccc2-c2c1c1c(c3cc(OC)c(-c4ccc(OC)cc4OC)cc23)OC(c2ccc(OC)cc2)(c2ccc(N3CCOCC3)cc2)C=C1 (centres unmarked) [Formula (67-2)] | 0.84 - | 1.00 - | 0.60 - | 0.72 - | 639
CCCCCCOc1ccc(C2(c3ccc(OCCCCCC)cc3)C=Cc3c4c(c5ccc(OC(F)(F)F)cc5c3O2)-c2ccc(N(C)c3ccc(C(F)(F)F)cc3)cc2C42CCC(CC)(CC)CC2)cc1 [Formula (6-3)] | 0.37 - | 0.77 - | 0.22 - | 0.46 - | 598
CCCC1(CCC)c2cc(N(C)c3ccccc3)ccc2-c2c1c1c(c3cc(OC)c(-c4ccc(N5CC(C)OC(C)C5)cc4)cc23)OC(c2ccc(N3CCOCC3)cc2)(c2ccc(OC)c(OC)c2)C=C1 (centres unmarked) [Formula (71-5)] | 1.43 - | 1.36 - | 1.17 - | 1.10 - | 643
COCCOCCOCCC1(CCOCCOCCOC)c2cc(N(c3ccccc3)c3ccccc3)ccc2-c2c1c1c(c3cc(OC)c(-c4c(OC)cc(OC)cc4OC)cc23)OC(c2ccc(OC)cc2)(c2ccc(OC)cc2)C=C1 [Formula (62-5)] | 1.20 - | 0.90 - | 0.88 - | 0.66 - | 625
CCCCOCCC1(CCOCCCC)c2cc(N(c3ccccc3)c3ccc(C)cc3)ccc2-c2c1c1c(c3cc(OC)c(OC)cc23)OC(c2ccc(OC)cc2)(c2ccc(N3CCOCC3)cc2)C=C1 (centres unmarked) [Formula (68-2)] | 0.79 - | 0.73 - | 0.51 - | 0.47 - | 636
